Results: ChEMBL document CHEMBL3627674, “Discovery of wrightiadione as a novel template for the TrkA kinase inhibitors” (Bioorg Med Chem Lett, 2015)

Key:
[1] = target: High affinity nerve growth factor receptor (Homo sapiens, UniProt P04629); assay: Inhibition of TrkA (unknown origin) by radiometric analysis in presence of [gamma-33P]-ATP
[2] = target: Serine/threonine-protein kinase PLK3 (Homo sapiens, UniProt Q9H4B4); assay: Inhibition of PLK3 (unknown origin) by radiometric analysis in presence of [gamma-33P]-ATP
Serine/threonine-protein kinase PLK3, sequence (Q9H4B4 whole entry): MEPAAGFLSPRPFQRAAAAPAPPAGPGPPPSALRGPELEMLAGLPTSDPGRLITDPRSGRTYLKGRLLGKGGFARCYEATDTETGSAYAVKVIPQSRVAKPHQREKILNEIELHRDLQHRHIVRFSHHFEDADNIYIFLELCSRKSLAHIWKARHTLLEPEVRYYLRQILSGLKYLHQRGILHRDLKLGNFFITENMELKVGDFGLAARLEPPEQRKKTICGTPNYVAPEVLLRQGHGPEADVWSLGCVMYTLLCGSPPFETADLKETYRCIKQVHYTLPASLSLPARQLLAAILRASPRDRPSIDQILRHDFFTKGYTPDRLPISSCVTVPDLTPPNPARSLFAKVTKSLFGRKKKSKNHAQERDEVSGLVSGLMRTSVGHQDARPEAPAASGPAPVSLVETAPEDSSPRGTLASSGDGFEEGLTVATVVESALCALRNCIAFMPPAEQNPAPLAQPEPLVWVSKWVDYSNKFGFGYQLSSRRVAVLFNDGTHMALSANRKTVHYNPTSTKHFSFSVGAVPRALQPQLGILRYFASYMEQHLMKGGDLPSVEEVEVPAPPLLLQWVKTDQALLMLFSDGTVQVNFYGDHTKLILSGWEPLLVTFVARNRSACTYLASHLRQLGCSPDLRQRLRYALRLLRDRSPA

High affinity nerve growth factor receptor, sequence (P04629 whole entry): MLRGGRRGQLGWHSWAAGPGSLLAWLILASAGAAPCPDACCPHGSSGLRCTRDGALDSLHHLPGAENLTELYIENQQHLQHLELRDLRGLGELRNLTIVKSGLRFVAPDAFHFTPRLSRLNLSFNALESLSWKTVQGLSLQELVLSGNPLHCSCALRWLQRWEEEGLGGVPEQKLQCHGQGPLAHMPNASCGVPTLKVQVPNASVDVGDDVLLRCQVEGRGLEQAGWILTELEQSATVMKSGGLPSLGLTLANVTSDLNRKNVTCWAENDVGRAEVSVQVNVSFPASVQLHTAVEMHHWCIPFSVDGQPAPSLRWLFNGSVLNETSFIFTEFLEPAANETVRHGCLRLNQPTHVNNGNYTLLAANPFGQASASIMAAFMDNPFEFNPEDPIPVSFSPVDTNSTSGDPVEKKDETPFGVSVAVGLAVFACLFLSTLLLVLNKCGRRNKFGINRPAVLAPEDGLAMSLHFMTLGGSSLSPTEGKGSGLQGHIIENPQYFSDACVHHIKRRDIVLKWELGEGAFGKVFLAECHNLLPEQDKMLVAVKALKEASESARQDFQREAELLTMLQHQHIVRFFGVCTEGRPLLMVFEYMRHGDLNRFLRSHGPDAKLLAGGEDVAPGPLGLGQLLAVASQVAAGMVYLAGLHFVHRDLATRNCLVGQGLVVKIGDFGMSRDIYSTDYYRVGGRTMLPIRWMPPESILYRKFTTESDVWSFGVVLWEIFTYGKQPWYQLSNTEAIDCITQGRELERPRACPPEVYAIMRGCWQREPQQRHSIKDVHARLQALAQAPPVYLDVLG

Structure (SMILES) | IC50 [1] [µM] | IC50 [2] [µM]
COc1ccc2c(c1)C(=O)c1c-2c(=O)c2ccccc2n1C | 6.6 | 
COc1ccc2c(c1)C(=O)c1c-2c(=O)c2ccccc2n1Cc1ccccc1 | 16.4 | 
Cn1c2c(c(=O)c3ccccc31)-c1ccccc1C2=O | 28.9 | > 200
Cn1c2c(c(=O)c3ccc(C(F)(F)F)cc31)-c1ccccc1C2=O | 117 | 
COc1ccc2c(c1)-c1c(n(C)c3ccccc3c1=O)C2=O | 14.4 | 
CCOC(=O)n1c2c(c(=O)c3ccccc31)-c1ccccc1C2=O | 16.5 | 
Cc1ccc2c(c1)C(=O)c1c-2c(=O)c2ccccc2n1C | 47.2 | 
COc1cccc2c1-c1c(n(C)c3ccccc3c1=O)C2=O | 209 | 
Cc1cccc2c1C(=O)c1c-2c(=O)c2ccccc2n1C | 73.3 | 
Cn1c2c(c(=O)c3ccc(Cl)cc31)-c1ccccc1C2=O | 88.5 | 
Cn1c2c(c(=O)c3ccccc31)-c1cccc(O)c1C2=O | 141 | 
O=C1c2ccccc2-c2c1n(Cc1ccccc1)c1ccccc1c2=O | 10.3 | 
